Assay results published in patent US5434295A (priority 1994, dated 1995).

Test system: intraocular pressure (IOP)
Test: Ocular hypotensive activity (intraocular pressure) in albino rabbits
Format: in vivo, albino rabbit
Settings: for Max ΔIOP: ** drug vs. vehicle P < 0.01
Description: Bicyclic compounds of the present invention were also tested for IOP lowering effects.
Sci., 82, 1069-1079 (1993).
The phospholipids and HU-259 were dissolved in the stabilized oily phase. The other excipients were dissolved in the aqueous phase. Both phases were heated separately to 70° C. and dispersed by a magnetic stirrer. Emulsification was completed using a "high speed mixer" for 5 min at 85° C. The resulting emulsion was cooled rapidly below 20° C. and homogenized using a two-stage homogenizing valve assembly (Gaulin Homogenizer, APV Gaulin, Hilversum, The Netherlands) for 5 min. All the manufacturing procedures were carried out under aseptic conditions and a nitrogen atmosphere. The pH was adjusted to 7.4 using a sodium hydroxide solution (10%). The final fine emulsion was filtered to achieve sterility and stored in ampoules. A typical formulation (%, w/w) consisted of the following: HU-259, 0.2%; oily phase, 20.0%; purified fractionated egg phospholipids, 1.2%; nonionic emulsifier, 2%; glycerin, 2.25%; α-tocopherol, 0.02%; methyl and butyl p-hydroxy- benzoic ester, 0.3 and 0.075%, respectively; and water for injection, to 100.0 g. The control emulsion vehicle was prepared using identical experimental conditions but without drug.
IOP was measured by using a pneumatonometer (Digilab T30). Pressure readings were calibrated for verification every 6 h. One drop (50 μl) of local anesthetic (Benoxinate HCl, 0.4% Fischer [Isr] diluted 1:3 with sterile saline) was instilled into each eye prior to IOP measurements.

Structure (SMILES): CCCCCCC(C)(C)c1cc(OC(C)=O)c([C@H]2C=C(C(=O)O)[C@H]3C[C@@H]2C3(C)C)c(OC(C)=O)c1 [(+)-4-[4-DMH-2,6 diacetoxyphenyl]-2-carboxy-6,6-dimethylbicyclo[3.1.1]hept-2-en]
- AUC (from instillation of treatment until return to baseline IOP) (contralateral eye): -7.8 ± 8.1 mmHg × hrs
- contralateral eye pressure lowered by (contralateral eye, single dose application): 2.5±0.9 mmHg
- Max ΔIOP (contralateral eye): -2.5 ± 0.9 mmHg
- time of maximal ocular hypotensive effect (post-application): 3 h
- time at which pressure returned to baseline level (post-treatment): 7 h
- duration of statistically significant reduction in IOP compared to vehicle (single dose 30 microliter 0.2% emulsion): over five hours
- AUC (from instillation of treatment until return to baseline IOP) (treated eye): -10.9 ± 10.9 mmHg × hrs
- Max ΔIOP (treated eye, single dose 0.2% emulsion): -3.2 ± 0.7 mmHg
- Pressure dropped by (maximal ocular hypotensive effect) (treated right eye, 3 h post-application, P<0.01): 3.2±0.7 mmHg
